Results as given in US20240043435A1, “TYK-2 INHIBITOR” (BEIGENE, LTD., priority 2020, published 2024).

Legend:
[1] = target: T1, TYK2-JH2 (aa 575-869, in-house) protein (Homo sapiens, UniProt P29597); test: TYK2-JH2 biochemical assay (HTRF probe displacement); assay type: binding; details: Biochemical assay; read-out: TYK2-JH2 IC50
T1 construct: TYK2-JH2 (aa 575-869, in-house) protein; made in house
In short: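 HTRF probe-displacement format: compound dilutions (10 points, 5-fold, from 500 uM in DMSO at 500×) were combined with 0.2 nM TYK2-JH2 protein for 0.5 h at room temperature in HEPES pH 7.5 buffer with MgCl2, BSA, DTT and Brij-35. Percent inhibition came from the 615/665 nm fluorescence ratio, fitted to a four-parameter logistic for IC50.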

[2] = system: JAK2, TYK2/p-STAT4 (Tyr693) activated by IL-12 in NK-92 cell line; test: IL-12-JAK2, TYK2/p-STAT4 (Tyr693) inhibition IC50 cellular assay; assay type: cell-based; details: for Selectivity fold (TYK2/JAK2): Cellular assay, pSTAT5/GM-CSF IC50 vs pSTAT4/IL-12 IC50; for IC50: NK92, Cellular assay, read-out: pSTAT4/IL-12 IC50
In short: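 p-STAT4 (Tyr693) in lysates was measured by AlphaLISA SureFire Ultra after a 30 min IL-12 challenge (40 ng/ml final) at 37° C. Overnight-starved, IL-2-free NK-92 cells had been pretreated 1 h with compound at 10000 to 0.61 nM (4-fold, 8 points). IC50 values came from four-parameter logistic fitting.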

pSTAT5/GM-CSF = pSTAT5/GM-CSF cellular assay (JAK2 selectivity); assay type: cell-based
[3] = pSTAT5/GM-CSF IC50 over pSTAT4/IL-12 IC50

T1 sequence (P29597 575-869): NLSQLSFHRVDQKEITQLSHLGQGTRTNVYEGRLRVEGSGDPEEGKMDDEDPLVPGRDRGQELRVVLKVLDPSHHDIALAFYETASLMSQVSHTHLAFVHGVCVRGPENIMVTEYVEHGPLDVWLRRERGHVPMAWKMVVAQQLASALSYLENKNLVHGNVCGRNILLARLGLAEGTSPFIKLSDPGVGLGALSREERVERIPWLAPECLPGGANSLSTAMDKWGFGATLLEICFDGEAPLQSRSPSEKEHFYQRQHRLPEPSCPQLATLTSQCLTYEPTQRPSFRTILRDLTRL

Structure (SMILES) | IC50 [1] | IC50 [2] | IC50 (pSTAT5/GM-CSF) | Selectivity fold (TYK2/JAK2) [2] | Selectivity fold (TYK2/JAK2) (pSTAT5/GM-CSF; [3]) | Selectivity fold (TYK2/JAK2) (pSTAT5/GM-CSF; pSTAT5/GM-CSF vs pSTAT4/IL-12)
CC(=O)Nc1cc(Nc2cc(OCC3CC3)cc(S(C)(=O)=O)c2)c(-c2ccc(N3C[C@@H](C)O[C@@H](C)C3)cn2)cn1 [Example C6, N-(4′-((3-(cyclopropylmethoxy)-5-(methylsulfonyl)phenyl)amino)-5-((cis)-2,6-dimethylmorpholino)-[2,3′-bipyridin]-6′-yl)acetamide] | 0.054 nM | 26 nM | > 10000 nM | >381 fold | – | –
COCc1cc(Nc2cc(NC(C)=O)ncc2-c2ccc(C(C)(C)O)cn2)cc(S(C)(=O)=O)c1 [Example H16, N-(5-(2-hydroxypropan-2-yl)-4′-((3-(methoxymethyl)-5-(methylsulfonyl)phenyl)amino)-[2,3′-bipyridin]-6′-yl)acetamide] | 0.028 nM | 7.51 nM | > 10000 nM | >1331 fold | – | –
CC(=O)Nc1cc(Nc2cc(C)cc(S(C)(=O)=O)n2)c(-c2ccc(OC(C)C)nn2)cn1 [Example A29, N-(5-(6-isopropoxypyridazin-3-yl)-4-((4-methyl-6-(methylsulfonyl)pyridin-2-yl)amino)pyridin-2-yl)acetamide] | 0.042 nM | 0.452 nM | > 10000 nM | >22123 fold | – | –
CC(=O)Nc1cc(Nc2cc(C)cc(S(C)(=O)=O)n2)c(-c2ccc(C(C)(C)O)cn2)cn1 [Example H9, N-(5-(2-hydroxypropan-2-yl)-4′-((4-methyl-6-(methylsulfonyl)pyridin-2-yl)amino)-[2,3′-bipyridin]-6′-yl)acetamide] | 0.016 nM | 0.503 nM | 1580 nM | 3147 fold | – | –
COc1ccc(S(C)(=O)=O)nc1Nc1cc(NC(C)=O)ncc1-c1cnn(C)c1 [Example A11, N-(4-((3-methoxy-6-(methylsulfonyl)pyridin-2-yl)amino)-5-(1-methyl-1H-pyrazol-4-yl)pyridin-2-yl)acetamide] | 0.063 nM | 41.7 nM | > 10000 nM | >239 fold | – | –
CC(=O)Nc1cc(Nc2cc(OC(C)C)cc(S(C)(=O)=O)n2)c(-c2ccc(C#N)cn2)cn1 [Example A17, N-(5-cyano-4′-((4-isopropoxy-6-(methylsulfonyl)pyridin-2-yl)amino)-[2,3′-bipyridin]-6′-yl)acetamide] | 0.028 nM | 1.64 nM | > 10000 nM | >6097 fold | – | –
CC(=O)Nc1cc(Nc2cc(OC(C)C)cc(S(C)(=O)=O)c2)c(-c2ccc(C(C)(C)O)cn2)cn1 [Example H24, N-(5-(2-hydroxypropan-2-yl)-4′-((3-isopropoxy-5-(methylsulfonyl)phenyl)amino)-[2,3′-bipyridin]-6′-yl)acetamide] | 0.034 nM | 5.39 nM | > 10000 nM | >1855 fold | – | –
CC(=O)Nc1cc(Nc2cccc(S(C)(=O)=O)n2)c(-c2c[nH]cn2)cn1 [Example A3, N-(5-(1H-imidazol-4-yl)-4-((6-(methylsulfonyl)pyridin-2-yl)amino)pyridin-2-yl)acetamide] | 0.035 nM | 2.53 nM | > 10000 nM | >3952 fold | – | –
CCOc1cc(Nc2cc(NC(C)=O)ncc2-c2ccc(OCCOC)cn2)nc(S(C)(=O)=O)c1 [Example D9, N-(4′-((4-ethoxy-6-(methylsulfonyl)pyridin-2-yl)amino)-5-(2-methoxyethoxy)-[2,3′-bipyridin]-6′-yl)acetamide] | 0.021 nM | 0.479 nM | > 10000 nM | >20876 fold | – | –
CC(=O)Nc1cc(Nc2cc(OCCO)cc(S(C)(=O)=O)n2)c(-c2ccc(N3CCOCC3=O)cn2)cn1 [Example G3, N-(4′-((4-(2-hydroxyethoxy)-6-(methylsulfonyl)pyridin-2-yl)amino)-5-(3-oxomorpholino)-[2,3′-bipyridin]-6′-yl)acetamide] | 0.05 nM | 224 nM | > 10000 nM | – | – | >44 fold
COCCOc1ccc(-c2cnc(NC(C)=O)cc2Nc2cc(C)cc(S(C)(=O)=O)n2)nc1 [Example D4, N-(5-(2-methoxyethoxy)-4′-((4-methyl-6-(methylsulfonyl)pyridin-2-yl)amino)-[2,3′-bipyridin]-6′-yl)acetamide] | 0.044 nM | 0.262 nM | > 10000 nM | >38167 fold | – | –

More lines, main results first:

IC50 [1] | IC50 [2] | IC50 (pSTAT5/GM-CSF) | Structure (SMILES) | Selectivity fold (TYK2/JAK2) [2] | Selectivity fold (TYK2/JAK2) (pSTAT5/GM-CSF; [3]) | Selectivity fold (TYK2/JAK2) (pSTAT5/GM-CSF; pSTAT5/GM-CSF vs pSTAT4/IL-12)
0.027 nM | 0.648 nM | > 10000 nM | CC(=O)Nc1cc(Nc2cc(OC(C)C)cc(S(C)(=O)=O)n2)c(-c2ccn([C@H]3CCOC3)n2)cn1 [Example M33, (S)-N-(4-((4-isopropoxy-6-(methylsulfonyl)pyridin-2-yl)amino)-5-(1-(tetrahydrofuran-3-yl)-1H-pyrazol-3-yl)pyridin-2-yl)acetamide] | – | >15432 fold | –
0.041 nM | 2.18 nM | > 10000 nM | CC(=O)Nc1cc(Nc2cccc(S(C)(=O)=O)n2)c(C2=NC(C)(C)CS2)cn1 [Example R1, N-(5-(4,4-dimethyl-4,5-dihydrothiazol-2-yl)-4-((6-(methylsulfonyl)pyridin-2-yl)amino)pyridin-2-yl)acetamide] | – | >4587 fold | –
0.045 nM | 12.4 nM | > 10000 nM | CC(=O)Nc1cc(Nc2cccc(S(=O)(=O)C(C)C)n2)c(-c2ccn(C)n2)cn1 [Example J29, N-(4-((6-(isopropylsulfonyl)pyri-din-2-yl)amino)-5-(1-methyl-1H-pyrazol-3-yl)pyridin-2-yl)acetamide] | – | >805 fold | –
0.017 nM | 0.72 nM | > 10000 nM | COc1cc(Nc2cc(NC(C)=O)ncc2-c2ccn(C)n2)nc(S(C)(=O)=O)c1 [Example J21, N-(4-((4-methoxy-6-(methylsulfonyl)pyridin-2-yl)amino)-5-(1-methyl-1H-pyrazol-3-yl)pyridin-2-yl)acetamide] | – | >13888 fold | –
0.076 nM | 15 nM | > 10000 nM | CC(=O)Nc1cc(Nc2cc(Cl)cc(S(C)(=O)=O)c2)c(-c2ccn(C)n2)cn1 [Example J31, N-(4-((3-chloro-5-(methylsulfonyl)phenyl)amino)-5-(1-methyl-1H-pyrazol-3-yl)pyridin-2-yl)acetamide] | – | >668 fold | –
0.021 nM | 0.641 nM | > 10000 nM | CC(=O)Nc1cc(Nc2cc(OC(C)C)cc(S(C)(=O)=O)n2)c(-c2cc(C)n(C)n2)cn1 [Example N2, N-(5-(1,5-dimethyl-1H-pyrazol-3-yl)-4-((4-isopropoxy-6-(methylsulfonyl)pyridin-2-yl)amino)pyridin-2-yl)acetamide] | – | >15600 fold | –
0.046 nM | 4.33 nM | > 10000 nM | CC(=O)Nc1cc(Nc2cc(OC(C)C)cc(S(C)(=O)=O)c2)c(-c2ccn(C(C)C)n2)cn1 [Example M26, N-(4-((3-isopropoxy-5-(methylsulfonyl)phenyl)amino)-5-(1-isopropyl-1H-pyrazol-3-yl)pyridin-2-yl)acetamide] | – | >2309 fold | –
0.026 nM | 0.989 nM | > 10000 nM | CCOc1cc(Nc2cc(NC(C)=O)ncc2-c2ccn(CC)n2)nc(S(C)(=O)=O)c1 [Example M18, N-(4-((4-ethoxy-6-(methylsulfonyl)pyridin-2-yl)amino)-5-(1-ethyl-1H-pyrazol-3-y)pyridin-2-yl)acetamide] | – | >10111 fold | –
0.017 nM | 0.275 nM | 6420 nM | CC(=O)Nc1cc(Nc2cccc(S(C)(=O)=O)n2)c(-c2ccn(C)n2)cn1 [Example J11, N-(5-(1-methyl-1H-pyrazol-3-yl)-4-((6-(methylsulfonyl)pyridin-2-yl)amino)pyridin-2-yl)actamide] | – | 23327 fold | –
0.036 nM | 10.7 nM | > 10000 nM | CC(=O)Nc1cc(Nc2cc(Oc3ccccc3)cc(S(C)(=O)=O)n2)c(-c2ccn(C)n2)cn1 [Example J39, N-(5-(1-methyl-1H-pyrazol-3-yl)-4-((6-(methylsulfonyl)-4-phenoxypyridin-2-yl)amino)pyridin-2-yl)acetamide] | – | >935 fold | –
0.038 nM | 1.33 nM | 3420 nM | COC1CCN(c2cc(Nc3cc(NC(C)=O)ncc3-c3ccc4c(n3)OCC(C)(C)O4)nc(S(C)(=O)=O)c2)CC1 [Example Q52, N-(5-(2,2-dimethyl-2,3-dihydro-[1,4]dioxino[2,3-b]pyridin-6-yl)-4-((4-(4-methoxypiperidin-1-yl)-6-(methylsulfonyl)pyridin-2-yl)amino)pyridin-2-yl)acetamide] | – | 2571 fold | –
0.03 nM | 9.12 nM | > 10000 nM | CCn1ccc(-c2cnc(NC(C)=O)cc2Nc2cc(COC)cc(S(C)(=O)=O)c2)n1 [Example M12, N-(5-(1-ethyl-1H-pyrazol-3-yl)-4-((3-(methoxymethyl)-5-(methylsulfonyl)phenyl)amino)pyridin-2-yl)acetamide] | – | >1096 fold | –
